ChEMBL document CHEMBL1201862, “PubChem BioAssay data set” (2004)
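Method: 48-hour compound exposure of cells in 96-well plates, five concentrations, linear interpolation of endpoints. GI50: concentration for 50% inhibition of growth.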 Calls of active or inactive are those of the source. Rule as the data show it: active = GI50 up to about 1.1 µM and inactive = higher.

What was measured:
Test in all cases: NCI-60 cell line screen, 48 h
HCC 2998 = system: HCC 2998
A498 = system: A498
HL-60 = system: HL-60
MOLT-4 = system: MOLT-4
SK-MEL-2 = system: SK-MEL-2
NCI-H522 = system: NCI-H522
RXF 393 = system: RXF 393
UACC-257 = system: UACC-257
RPMI-8226 = system: RPMI-8226
MDA-MB-231 = system: MDA-MB-231
U-251 = system: U-251
Hs-578T = system: Hs-578T
SK-MEL-28 = system: SK-MEL-28
HOP-62 = system: HOP-62
SF-295 = system: SF-295
UACC-62 = system: UACC-62
IGROV-1 = system: IGROV-1
Malme-3M = system: Malme-3M
T47D = system: T47D
CCRF-CEM = system: CCRF-CEM
SN12C = system: SN12C
HCT-15 = system: HCT-15
CAKI-1 = system: CAKI-1
M14 = system: M14
NCI-H23 = system: NCI-H23
NCI/ADR-RES = system: NCI/ADR-RES
SW-620 = system: SW-620
OVCAR-4 = system: OVCAR-4
ACHN = system: ACHN
KM12 = system: KM12
SF-539 = system: SF-539
K562 = system: K562
OVCAR-3 = system: OVCAR-3
NCI-H460 = system: NCI-H460
786-0 = system: 786-0
DU-145 = system: DU-145
HOP-92 = system: HOP-92
EKVX = system: EKVX
SNB-19 = system: SNB-19
SNB-75 = system: SNB-75
A549 = system: A549
SF-268 = system: SF-268
OVCAR-8 = system: OVCAR-8
UO-31 = system: UO-31
COLO 205 = system: COLO 205
HT-29 = system: HT-29
PC-3 = system: PC-3
OVCAR-5 = system: OVCAR-5
BT-549 = system: BT-549
MDA-N = system: MDA-N
HCT-116 = system: HCT-116
MCF7 = system: MCF7
LOX IMVI = system: LOX IMVI
SK-MEL-5 = system: SK-MEL-5
TK-10 = system: TK-10
SK-OV-3 = system: SK-OV-3
MDA-MB-435 = system: MDA-MB-435
NCI-H226 = system: NCI-H226

Cc1cc(OC2OC(CO)C(O)C(O)C2O)ccc1O (centres undefined)
GI50 (HCC 2998): > 100 µM (inactive)
GI50 (A498): > 100 µM (inactive)
GI50 (HL-60): > 100 µM (inactive)
GI50 (MOLT-4): > 100 µM (inactive)
GI50 (SK-MEL-2): > 100 µM (inactive)
GI50 (NCI-H522): > 100 µM (inactive)
GI50 (RXF 393): > 100 µM (inactive)
GI50 (UACC-257): > 100 µM (inactive)
GI50 (RPMI-8226): > 100 µM (inactive)
GI50 (MDA-MB-231): > 100 µM (inactive)
GI50 (U-251): > 100 µM (inactive)
GI50 (Hs-578T): > 100 µM (inactive)
GI50 (SK-MEL-28): > 100 µM (inactive)
GI50 (HOP-62): > 100 µM (inactive)
GI50 (SF-295): > 100 µM (inactive)
GI50 (UACC-62): > 100 µM (inactive)
GI50 (IGROV-1): > 100 µM (inactive)
GI50 (Malme-3M): > 100 µM (inactive)
GI50 (T47D): > 100 µM (inactive)
GI50 (CCRF-CEM): > 100 µM (inactive)
GI50 (SN12C): > 100 µM (inactive)
GI50 (HCT-15): > 100 µM
GI50 (CAKI-1): > 100 µM (inactive)
GI50 (M14): > 100 µM (inactive)
GI50 (NCI-H23): > 100 µM (inactive)
GI50 (NCI/ADR-RES): > 100 µM (inactive)
GI50 (SW-620): > 100 µM (inactive)
GI50 (OVCAR-4): > 100 µM (inactive)
GI50 (ACHN): > 100 µM (inactive)
GI50 (KM12): > 100 µM (inactive)
GI50 (SF-539): > 100 µM (inactive)
GI50 (K562): > 100 µM (inactive)
GI50 (OVCAR-3): > 100 µM (inactive)
GI50 (NCI-H460): > 100 µM (inactive)
GI50 (786-0): > 100 µM (inactive)
GI50 (DU-145): > 10 µM (inactive)
GI50 (HOP-92): > 100 µM (inactive)
GI50 (EKVX): > 100 µM (inactive)
GI50 (SNB-19): > 100 µM (inactive)
GI50 (SNB-75): > 100 µM (inactive)
GI50 (A549): > 100 µM (inactive)
GI50 (SF-268): > 100 µM (inactive)
GI50 (OVCAR-8): > 100 µM (inactive)
GI50 (UO-31): > 100 µM (inactive)
GI50 (COLO 205): > 100 µM (inactive)
GI50 (HT-29): > 100 µM (inactive)
GI50 (PC-3): > 100 µM (inactive)
GI50 (OVCAR-5): > 100 µM (inactive)
GI50 (BT-549): > 100 µM (inactive)
GI50 (MDA-N): > 100 µM (inactive)
GI50 (HCT-116): > 100 µM (inactive)
GI50 (MCF7): > 100 µM (inactive)
GI50 (LOX IMVI): > 100 µM (inactive)
GI50 (SK-MEL-5): > 100 µM (inactive)
GI50 (TK-10): > 100 µM (inactive)
GI50 (SK-OV-3): > 100 µM (inactive)
GI50 (MDA-MB-435): > 100 µM (inactive)

S=c1scc(-c2ccc(Cl)cc2)n1OC1CCCC1
GI50 (HCC 2998): 23.9 µM (inactive)
GI50 (A498): 26.1 µM (inactive)
GI50 (HL-60): 22 µM (inactive)
GI50 (MOLT-4): 15.9 µM (inactive)
GI50 (SK-MEL-2): 18.3 µM (inactive)
GI50 (NCI-H522): 16.4 µM (inactive)
GI50 (RXF 393): 17.1 µM (inactive)
GI50 (UACC-257): 27 µM (inactive)
GI50 (MDA-MB-231): 39.5 µM (inactive)
GI50 (U-251): 15.6 µM (inactive)
GI50 (Hs-578T): 82.6 µM (inactive)
GI50 (SK-MEL-28): 72.4 µM (inactive)
GI50 (HOP-62): 36.7 µM (inactive)
GI50 (SF-295): 30.5 µM (inactive)
GI50 (UACC-62): 24.4 µM (inactive)
GI50 (IGROV-1): 48.8 µM (inactive)
GI50 (Malme-3M): 56.2 µM (inactive)
GI50 (T47D): 12.9 µM (inactive)
GI50 (SN12C): 35.8 µM (inactive)
GI50 (HCT-15): 21.8 µM
GI50 (CAKI-1): 47.2 µM (inactive)
GI50 (M14): 36.9 µM (inactive)
GI50 (NCI-H23): 16.9 µM (inactive)
GI50 (NCI/ADR-RES): 23.8 µM (inactive)
GI50 (SW-620): 32.7 µM (inactive)
GI50 (OVCAR-4): 16.7 µM (inactive)
GI50 (ACHN): 25.5 µM (inactive)
GI50 (KM12): 18.5 µM (inactive)
GI50 (SF-539): 10.8 µM (inactive)
GI50 (K562): 16.1 µM (inactive)
GI50 (OVCAR-3): 16.7 µM (inactive)
GI50 (NCI-H460): 25.2 µM (inactive)
GI50 (786-0): 37 µM (inactive)
GI50 (DU-145): 29.4 µM (inactive)
GI50 (HOP-92): 21.3 µM (inactive)
GI50 (EKVX): 28.1 µM (inactive)
GI50 (SNB-19): 69 µM (inactive)
GI50 (SNB-75): 36.5 µM (inactive)
GI50 (A549): 26.2 µM (inactive)
GI50 (SF-268): 72.9 µM (inactive)
GI50 (OVCAR-8): 33.8 µM (inactive)
GI50 (UO-31): 40.6 µM (inactive)
GI50 (COLO 205): 12 µM (inactive)
GI50 (HT-29): 20.9 µM (inactive)
GI50 (PC-3): 29.9 µM (inactive)
GI50 (OVCAR-5): 52.2 µM (inactive)
GI50 (BT-549): 30.2 µM (inactive)
GI50 (MDA-N): 21.6 µM (inactive)
GI50 (HCT-116): 22.2 µM (inactive)
GI50 (MCF7): 27 µM (inactive)
GI50 (LOX IMVI): 23.6 µM (inactive)
GI50 (SK-MEL-5): 11.4 µM (inactive)
GI50 (TK-10): 72.8 µM (inactive)
GI50 (SK-OV-3): 36.2 µM (inactive)
GI50 (MDA-MB-435): 15.7 µM (inactive)

COc1cc(/C=C2\CC3C4CC[C@H]5C[C@@H](O)CC[C@]5(C)C4CC[C@]3(C)C2=O)cc(OC)c1OC (some centres undefined)
GI50 (HCC 2998): 7.13 µM (inactive)
GI50 (A498): 12.1 µM (inactive)
GI50 (HL-60): 5.75 µM (inactive)
GI50 (MOLT-4): 4.82 µM (inactive)
GI50 (SK-MEL-2): 14.9 µM (inactive)
GI50 (NCI-H522): 7.93 µM (inactive)
GI50 (RXF 393): 13.9 µM (inactive)
GI50 (UACC-257): 21.8 µM (inactive)
GI50 (RPMI-8226): 4.17 µM (inactive)
GI50 (MDA-MB-231): 22.1 µM (inactive)
GI50 (U-251): 8.26 µM (inactive)
GI50 (Hs-578T): 14.4 µM (inactive)
GI50 (SK-MEL-28): 32.7 µM (inactive)
GI50 (HOP-62): 13 µM (inactive)
GI50 (SF-295): 4.69 µM (inactive)
GI50 (UACC-62): 17.6 µM (inactive)
GI50 (IGROV-1): 36.6 µM (inactive)
GI50 (Malme-3M): 19.5 µM (inactive)
GI50 (T47D): 3.7 µM (inactive)
GI50 (CCRF-CEM): 7.36 µM (inactive)
GI50 (SN12C): 15.2 µM (inactive)
GI50 (HCT-15): 9.59 µM
GI50 (CAKI-1): 9.4 µM (inactive)
GI50 (M14): 17.4 µM (inactive)
GI50 (NCI-H23): 20.4 µM (inactive)
GI50 (NCI/ADR-RES): 16.7 µM (inactive)
GI50 (SW-620): 24.8 µM (inactive)
GI50 (OVCAR-4): 4.61 µM (inactive)
GI50 (ACHN): 11.8 µM (inactive)
GI50 (KM12): 9.75 µM (inactive)
GI50 (SF-539): 22.6 µM (inactive)
GI50 (K562): 4.68 µM (inactive)
GI50 (NCI-H460): 10.7 µM (inactive)
GI50 (786-0): 16 µM (inactive)
GI50 (DU-145): 27.2 µM (inactive)
GI50 (HOP-92): 26.5 µM (inactive)
GI50 (EKVX): 12 µM (inactive)
GI50 (SNB-19): 17.5 µM (inactive)
GI50 (SNB-75): 14.4 µM (inactive)
GI50 (A549): 7.18 µM (inactive)
GI50 (SF-268): 24 µM (inactive)
GI50 (OVCAR-8): 15.8 µM (inactive)
GI50 (UO-31): 4.08 µM (inactive)
GI50 (COLO 205): 5.93 µM (inactive)
GI50 (HT-29): 9.44 µM (inactive)
GI50 (PC-3): 5.48 µM (inactive)
GI50 (OVCAR-5): 27 µM (inactive)
GI50 (BT-549): 24.8 µM (inactive)
GI50 (MDA-N): 19.9 µM (inactive)
GI50 (HCT-116): 7.19 µM (inactive)
GI50 (MCF7): 4.25 µM (inactive)
GI50 (LOX IMVI): 12.6 µM (inactive)
GI50 (SK-MEL-5): 9.29 µM (inactive)
GI50 (TK-10): 27.6 µM (inactive)
GI50 (SK-OV-3): 11.5 µM (inactive)
GI50 (NCI-H226): 13.6 µM (inactive)
GI50 (MDA-MB-435): 13.5 µM (inactive)
